Reference: publication PMC9403976, “Elucidating the path to Plasmodium prolyl-tRNA synthetase inhibitors that overcome halofuginone resistance” (Nature Communications, 2022)
Values joined by “and” are separate entries in the source; they are usually repeats but may differ in a detail not shown here. Identical values can stand only once. Like-named read-outs stand apart in the source and are kept apart here.

Key:
P. falciparum Dd2-2D4 = experiment: P. falciparum asexual blood stage (ABS) growth assay, SYBR Green, 72 h, wild-type parasites; type: cell-based, Plasmodium falciparum
[1] = test system: P. falciparum Dd2-2D4 NCP26 selections S1-3; experiment: ABS growth assay on bulk populations and clones from NCP26 resistance selections S1-3; type: cell-based, Plasmodium falciparum; conditions: independent experiments
Method: In short, P. falciparum erythrocytic-stage parasites at 1% parasitemia and 1% hematocrit in RPMI + 0.5% Albumax were seeded at 40 μL/well in 384-well plates with test compounds in triplicate, dose-response format with 10 μM dihydroartemisinin as a kill-control and blank (no compound) wells as a growth-control. […] After 72 h, growth was quantified by measuring fluorescence (Molecular Devices SpectraMax iD5) following SYBR Green 1 staining. Data were analyzed in Excel and plotted in PRISM (V. 8.4.3–9.1.0, GraphPad).
This cycle was repeated for ~50 generations (~100 days), corresponding to 5–6 cycles of drug pressure.
Clonal parasites were isolated from each selection flask by limiting dilution of ring stage parasites in 96-well plates to an average of 0.8 and 0.2 parasites per well.

[2] = test system: halofuginone-induced P. falciparum (elevated proline homeostasis); experiment: P. falciparum ABS growth assay, SYBR Green, 72 h, halofuginone-induced parasites; type: cell-based, Plasmodium falciparum; conditions: Halofuginone-Induced (HFG-Induced)
How it was run: (§1)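 Growth inhibition of the resistant and induced Dd2 lines is measured over 72 h in triplicate dose-response, starting at 1% parasitemia and 1% hematocrit. SYBR Green 1 staining gives the fluorescence readout, normalized between 10 μM dihydroartemisinin and no-compound wells.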

[3] = test system: HFGR-I P. falciparum (elevated proline homeostasis and PfcProRS^L482H); experiment: P. falciparum ABS growth assay, SYBR Green, 72 h, HFGR-I parasites; type: cell-based, Plasmodium falciparum; conditions: HFGR-I
How it was run: as §1

PfcProRS = biological target: T1, PfcProRS (Plasmodium falciparum, UniProt Q8I5R7); type: binding; conditions: for Normalized response, dose-response replicates (SI Fig 14): replicates 1-3
T1 construct: made in house; host or cells: E. coli SoluBL-21

HsProRS = HsProRS (Homo sapiens, UniProt P07814); experiment: TR-FRET ligand displacement assay with tracer MAT379 (CoraFluor-1-Halo and anti-His6 antibody formats); type: binding; parameters: made in house; host or cells: E. coli SoluBL-21; conditions: for Kd: 250 nM MAT379; for normalized TR-FRET signal (dose-response replicates): SI Fig 17a
[4] = Log[inhibitor] (M) -5.000, series r16-r27

HsProRS, sequence (P07814 996-1512): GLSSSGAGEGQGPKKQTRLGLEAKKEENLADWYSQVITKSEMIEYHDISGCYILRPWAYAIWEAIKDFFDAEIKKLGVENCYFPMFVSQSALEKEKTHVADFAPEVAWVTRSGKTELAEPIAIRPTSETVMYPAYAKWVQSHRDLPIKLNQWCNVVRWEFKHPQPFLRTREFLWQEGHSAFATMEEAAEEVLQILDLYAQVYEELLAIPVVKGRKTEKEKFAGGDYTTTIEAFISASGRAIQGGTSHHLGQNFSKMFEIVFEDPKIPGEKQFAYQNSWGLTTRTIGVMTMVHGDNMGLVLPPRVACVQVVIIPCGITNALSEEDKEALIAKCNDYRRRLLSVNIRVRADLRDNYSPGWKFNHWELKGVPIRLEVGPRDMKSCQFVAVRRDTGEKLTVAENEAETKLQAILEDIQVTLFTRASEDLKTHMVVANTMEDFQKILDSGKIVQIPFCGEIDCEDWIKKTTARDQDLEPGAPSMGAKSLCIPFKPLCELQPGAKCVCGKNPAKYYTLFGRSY
T1 sequence (Q8I5R7 249-746): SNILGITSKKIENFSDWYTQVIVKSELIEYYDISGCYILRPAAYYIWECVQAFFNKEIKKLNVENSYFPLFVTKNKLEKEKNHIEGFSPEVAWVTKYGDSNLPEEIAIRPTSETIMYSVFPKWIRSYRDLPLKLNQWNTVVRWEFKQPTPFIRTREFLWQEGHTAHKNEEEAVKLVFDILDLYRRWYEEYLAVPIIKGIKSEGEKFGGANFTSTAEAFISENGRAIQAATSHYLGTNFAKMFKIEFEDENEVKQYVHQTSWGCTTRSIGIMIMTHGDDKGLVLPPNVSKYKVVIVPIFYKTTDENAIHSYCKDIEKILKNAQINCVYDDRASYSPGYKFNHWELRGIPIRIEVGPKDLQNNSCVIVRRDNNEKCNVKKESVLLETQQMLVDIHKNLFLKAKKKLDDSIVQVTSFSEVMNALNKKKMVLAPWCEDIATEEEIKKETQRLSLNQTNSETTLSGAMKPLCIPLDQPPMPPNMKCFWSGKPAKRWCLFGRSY

C[C@H]1[C@@H](O)O[C@@H]2O[C@@]3(C)CC[C@H]4[C@H](C)CC[C@@H]1[C@@]24OO3 [Dihydroartemesinin (DHA)]
Fold-change Resistance (P. falciparum Dd2-2D4; Dd2-2D4, independent experiments): 0.78 and 1.22 and 1 | Fold-change Resistance ([1]; S1 - Clone A8): 0.68 and 0.97 | Fold-change Resistance ([1]; S2 - Clone B9): 2.04 | Fold-change Resistance ([1]; S3 - Clone B3): 0.71 and 0.6

CC(C)(C)OC(=O)N1CCC[C@H]1C(=O)NCC1CCN(C(=O)Nc2nccnc2C(=O)NC2Cc3ccccc3C2)CC1 [compound 32]
EC50 (P. falciparum Dd2-2D4; Plasmodium falciparum, DD2, SI Fig 16b, values on -log scale, read-out: ABS - Dd2-2D4 (converted)): 63.2 nM | parasite growth, dose-response point [2, 4]: 56 and 59 and 61 | parasite growth, dose-response point ([2]; Log[inhibitor] (M) -5.408): 91 and 93 | parasite growth, dose-response point ([2]; Log[inhibitor] (M) -5.816): 97 and 101 | parasite growth, dose-response point ([2]; Log[inhibitor] (M) -6.222): 101 and 104 | parasite growth, dose-response point ([2]; Log[inhibitor] (M) -6.638): 105 and 99 and 109 | parasite growth, dose-response point ([2]; Log[inhibitor] (M) -7.046): 102 and 106 | parasite growth, dose-response point ([2]; Log[inhibitor] (M) -7.450): 96 and 98 and 97 | parasite growth, dose-response point ([2]; Log[inhibitor] (M) -7.854): 92 and 97 and 99 | parasite growth, dose-response point ([2]; Log[inhibitor] (M) -8.260): 102 and 96 and 100 | parasite growth, dose-response point ([2]; Log[inhibitor] (M) -8.699): 96 and 106 and 94 | parasite growth, dose-response point ([2]; Log[inhibitor] (M) -9.000): 100 and 96 and 98 | parasite growth, dose-response point ([2]; Log[inhibitor] (M) -9.488): 96 and 100 and 101 | parasite growth, dose-response point [3, 4]: 65 and 64 and 69 | parasite growth, dose-response point ([3]; Log[inhibitor] (M) -5.408): 103 and 102 and 96 | parasite growth, dose-response point ([3]; Log[inhibitor] (M) -5.816): 108 (2×) and 102 | parasite growth, dose-response point ([3]; Log[inhibitor] (M) -6.222): 105 | parasite growth, dose-response point ([3]; Log[inhibitor] (M) -6.638): 107 and 104 and 103 | parasite growth, dose-response point ([3]; Log[inhibitor] (M) -7.046): 101 and 105 and 99 | parasite growth, dose-response point ([3]; Log[inhibitor] (M) -7.450): 87 and 91 and 96 | parasite growth, dose-response point ([3]; Log[inhibitor] (M) -7.854): 87 and 93 and 83 | parasite growth, dose-response point ([3]; Log[inhibitor] (M) -8.260): 88 and 90 and 94 | parasite growth, dose-response point ([3]; Log[inhibitor] (M) -8.699): 93 and 91 | parasite growth, dose-response point ([3]; Log[inhibitor] (M) -9.000): 91 and 92 and 87 | parasite growth, dose-response point ([3]; Log[inhibitor] (M) -9.488): 92 and 82 | Normalized response, dose-response replicates (SI Fig 14) (PfcProRS; Log[inhibitor] (M) -5.000): 8.11E-02 and -2.06E-02 and -4.64E-02 | Normalized response, dose-response replicates (SI Fig 14) (PfcProRS; Log[inhibitor] (M) -5.301): 3.54E-04 and -5.93E-02 and 6.94E-02 | Normalized response, dose-response replicates (SI Fig 14) (PfcProRS; Log[inhibitor] (M) -5.601): 6.67E-02 and 8.89E-02 and 6.64E-02 | Normalized response, dose-response replicates (SI Fig 14) (PfcProRS; Log[inhibitor] (M) -5.904): 2.31E-01 and 3.17E-01 and 2.64E-01 | Normalized response, dose-response replicates (SI Fig 14) (PfcProRS; Log[inhibitor] (M) -6.208): 3.63E-01 and 4.57E-01 and 4.26E-01 | Normalized response, dose-response replicates (SI Fig 14) (PfcProRS; Log[inhibitor] (M) -6.509): 7.41E-01 and 6.71E-01 and 7.68E-01 | Normalized response, dose-response replicates (SI Fig 14) (PfcProRS; Log[inhibitor] (M) -6.796): 9.02E-01 and 7.89E-01 and 8.70E-01 | Normalized response, dose-response replicates (SI Fig 14) (PfcProRS; Log[inhibitor] (M) -7.108): 8.53E-01 and 8.96E-01 and 8.71E-01 | Normalized response, dose-response replicates (SI Fig 14) (PfcProRS; Log[inhibitor] (M) -7.409): 8.49E-01 and 8.87E-01 and 9.83E-01 | Normalized response, dose-response replicates (SI Fig 14) (PfcProRS; Log[inhibitor] (M) -7.710): 9.08E-01 and 9.29E-01 and 9.85E-01 | Normalized response, dose-response replicates (SI Fig 14) (PfcProRS; Log[inhibitor] (M) -8.000): 9.86E-01 and 8.66E-01 and 9.79E-01 | Normalized response, dose-response replicates (SI Fig 14) (PfcProRS; Log[inhibitor] (M) -8.301): 1.11E+00 and 8.88E-01 and 9.05E-01 | Normalized response, dose-response replicates (SI Fig 14) (PfcProRS; Log[inhibitor] (M) -8.602): 9.30E-01 and 8.25E-01 and 1.02E+00 | Normalized response, dose-response replicates (SI Fig 14) (PfcProRS; Log[inhibitor] (M) -9.000): 8.77E-01 and 8.28E-01 and 9.46E-01 | Normalized response, dose-response replicates (SI Fig 14) (PfcProRS; Log[inhibitor] (M) -9.301): 8.47E-01 and 9.35E-01 and 9.98E-01 | PfcProRS -- best Kd (PfcProRS; SI Fig 16a, values on -log scale): 8.272 | Kd (HsProRS; HsProRS (KD [nM]) + proline, 100 μM proline): 270 nM | Kd (HsProRS; HsProRS (KD [nM]) −, absence of substrates): 72.1 nM | normalised signal, dose-response point (Fig 4d) (HsProRS; Log[inhibitor] (M) -5.000, series of 32): 2.12E-01 and 2.00E-01 and 2.05E-01 | normalised signal, dose-response point (Fig 4d) (HsProRS; Log[inhibitor] (M) -5.260): 3.41E-01 and 3.06E-01 and 3.25E-01 | normalised signal, dose-response point (Fig 4d) (HsProRS; Log[inhibitor] (M) -5.520): 5.51E-01 and 5.09E-01 and 5.11E-01 | normalised signal, dose-response point (Fig 4d) (HsProRS; Log[inhibitor] (M) -5.770): 5.87E-01 and 6.67E-01 and 6.60E-01 | normalised signal, dose-response point (Fig 4d) (HsProRS; Log[inhibitor] (M) -6.020): 8.17E-01 and 7.53E-01 and 7.81E-01 | normalised signal, dose-response point (Fig 4d) (HsProRS; Log[inhibitor] (M) -6.280): 8.69E-01 and 9.20E-01 and 9.33E-01 | normalised signal, dose-response point (Fig 4d) (HsProRS; Log[inhibitor] (M) -6.530): 9.20E-01 and 9.88E-01 and 9.42E-01 | normalised signal, dose-response point (Fig 4d) (HsProRS; Log[inhibitor] (M) -6.800): 9.40E-01 and 8.89E-01 | normalised signal, dose-response point (Fig 4d) (HsProRS; Log[inhibitor] (M) -7.060): 9.33E-01 and 9.82E-01 and 1.04E+00 | normalised signal, dose-response point (Fig 4d) (HsProRS; Log[inhibitor] (M) -7.320): 9.28E-01 and 1.05E+00 and 1.04E+00 | normalised signal, dose-response point (Fig 4d) (HsProRS; Log[inhibitor] (M) -7.550): 9.75E-01 and 9.78E-01 and 9.48E-01 | normalised signal, dose-response point (Fig 4d) (HsProRS; Log[inhibitor] (M) -7.800): 9.53E-01 and 9.20E-01 and 9.82E-01 | normalised signal, dose-response point (Fig 4d) (HsProRS; Log[inhibitor] (M) -8.100): 1.05E+00 and 1.02E+00 and 1.07E+00 | normalised signal, dose-response point (Fig 4d) (HsProRS; Log[inhibitor] (M) -8.400): 1.08E+00 and 1.05E+00 and 1.02E+00 | normalised signal, dose-response point (Fig 4d) (HsProRS; Log[inhibitor] (M) -8.590): 1.09E+00 and 1.06E+00 and 1.01E+00 | normalized TR-FRET signal (dose-response replicates) (HsProRS; Log[inhibitor] (M) -5.000): 2.39E-01 and 2.20E-01 and 1.87E-01 | normalized TR-FRET signal (dose-response replicates) (HsProRS; Log[inhibitor] (M) -5.301): 3.62E-01 and 3.47E-01 and 3.37E-01 | normalized TR-FRET signal (dose-response replicates) (HsProRS; Log[inhibitor] (M) -5.601): 5.14E-01 and 4.86E-01 and 5.28E-01 | normalized TR-FRET signal (dose-response replicates) (HsProRS; Log[inhibitor] (M) -5.904): 6.65E-01 and 6.61E-01 and 6.44E-01 | normalized TR-FRET signal (dose-response replicates) (HsProRS; Log[inhibitor] (M) -6.208): 7.43E-01 and 7.50E-01 and 7.76E-01 | normalized TR-FRET signal (dose-response replicates) (HsProRS; Log[inhibitor] (M) -6.509): 8.47E-01 and 8.09E-01 and 8.87E-01 | normalized TR-FRET signal (dose-response replicates) (HsProRS; Log[inhibitor] (M) -6.796): 8.64E-01 and 8.39E-01 and 8.67E-01 | normalized TR-FRET signal (dose-response replicates) (HsProRS; Log[inhibitor] (M) -7.108): 8.86E-01 and 8.93E-01 and 9.29E-01 | normalized TR-FRET signal (dose-response replicates) (HsProRS; Log[inhibitor] (M) -7.409): 9.16E-01 and 8.51E-01 and 8.90E-01 | normalized TR-FRET signal (dose-response replicates) (HsProRS; Log[inhibitor] (M) -7.710): 8.73E-01 and 8.93E-01 and 9.04E-01 | normalized TR-FRET signal (dose-response replicates) (HsProRS; Log[inhibitor] (M) -8.000): 8.95E-01 and 8.48E-01 and 9.51E-01 | normalized TR-FRET signal (dose-response replicates) (HsProRS; Log[inhibitor] (M) -8.301): 9.44E-01 and 8.99E-01 and 9.43E-01 | normalized TR-FRET signal (dose-response replicates) (HsProRS; Log[inhibitor] (M) -8.602): 9.47E-01 and 8.94E-01 and 9.08E-01 | normalized TR-FRET signal (dose-response replicates) (HsProRS; Log[inhibitor] (M) -9.000): 8.96E-01 and 9.17E-01 and 8.59E-01 | normalized TR-FRET signal (dose-response replicates) (HsProRS; Log[inhibitor] (M) -9.301): 8.96E-01 and 9.24E-01 and 9.14E-01
